Measurements taken from patent US20260325473A1, “N-Beta-Hydroxybutyryl-Amino Acids and Related Compositions and Methods” (The Board of Trustees of the Leland Stanford Junior …, priority 2023, published 2026).

Legend:
CNDP2 = molecular target: T1, CNDP2 (Mus musculus, UniProt Q9D1A2); assay: In vitro synthase (condensation) activity, lysates of CNDP2-transfected HEK293T cells; type: biochemical; set-up: expressed in transfected cells; host or cells: HEK293T (lysate); settings: role: product
T1 sequence (Q9D1A2 1-475): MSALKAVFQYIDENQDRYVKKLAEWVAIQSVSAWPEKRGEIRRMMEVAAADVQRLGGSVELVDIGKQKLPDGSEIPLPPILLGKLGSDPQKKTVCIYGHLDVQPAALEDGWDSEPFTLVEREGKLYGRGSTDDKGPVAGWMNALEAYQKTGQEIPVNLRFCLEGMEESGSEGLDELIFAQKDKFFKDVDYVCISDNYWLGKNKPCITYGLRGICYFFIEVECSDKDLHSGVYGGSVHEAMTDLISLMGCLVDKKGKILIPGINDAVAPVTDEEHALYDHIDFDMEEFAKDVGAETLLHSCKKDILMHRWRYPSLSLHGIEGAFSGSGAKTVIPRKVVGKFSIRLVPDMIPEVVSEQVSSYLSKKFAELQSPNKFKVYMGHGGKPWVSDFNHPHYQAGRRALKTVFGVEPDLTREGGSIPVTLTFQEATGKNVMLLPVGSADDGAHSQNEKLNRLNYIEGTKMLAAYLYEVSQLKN
Method: In vitro enzyme activity assays. HEK293T cells were transfected with GFP, CNDP2 or CNDP2-E166A using PolyFect (Qiagen 301105) according to the manufacturer's instructions. The medium was changed one day post-transfection. After an additional 24 h, the cells were harvested in PBS, lysed by sonication and centrifuged (10 min at 15,000 rpm) to remove debris. Supernatant was collected and protein concentrations were adjusted. The in vitro reactions were conducted in Eppendorf tubes with 100 μL of 1 mg/mL protein and 20 mM substrates for keto amino acid synthase activity assays and. Reactions were incubated for 1 h at 37° C. and 20 μl of 1 M HCl were added to acidify the medium and to protonate keto amino acids. Reactions were vortexed and 400 μL of ethyl acetate were added to each reaction. Reactions were vortexed for 30 s to extract keto amino acids into the organic layer and centrifuged at 4° C. for 10 min at 15,000 r.p.m. A total of 300 μl from the top layer was transferred to a new Eppendorf tube and dried down under a stream of nitrogen. The residue was re-suspended in 150 μl of an 2:1:1 mixture of acetonitrile: methanol: water. The mixture was centrifuged at 4° C. for 10 min at 15,000 r.p.m. and the supernatant was transferred to a LC-MS vial.

DIO mice [1] = assay: Plasma ghrelin, leptin and GDF-15 in DIO mice; type: in vivo, mouse; settings: 50 mg/kg IP, single; 1 h
Method: Leptin, ghrelin and GDF-15 measurements. Plasma was collected from DIO mice 1 h after the administration of BHB-Phe (50 mg/kg, IP) or vehicle. ELISA kits for leptin (Crystal Chem 90030), ghrelin (Cayman Chemicals 10006307) and GDF-15 (R&D Systems DY6385-05) were used following manufacturer's instructions.

DIO mice [2] = assay: Food, kaolin and water intake in DIO mice; type: in vivo, mouse; settings: 50 mg/kg IP, single; 18 h
Method: Kaolin and water intake assays. DIO mice were individually housed and allowed ad libitum access to kaolin pellets for 5 days before the start of the experiment. Mice were also provided high-fat diet and had ad libitum access to water. On the day of the experiment, kaolin and high-fat diet pellets were replaced with fresh pellets. Mice were then injected with either vehicle or BHB-Phe (50 mg/kg, IP), and high-fat diet, kaolin and water intake were measured after 18 h.

DIO mice [3] = assay: Acute administration in DIO mice in home cages: food intake and plasma BHB-Phe; type: in vivo, mouse; settings: 50 mg/kg IP
Method: (§1) General animal information. Animal experiments were performed according to procedure approved by the Stanford University Administrative Panel on Laboratory Animal Care (APLAC). Mice were maintained in 12-hr light-dark cycles at 22° C. and ~50% relative humidity and fed a standard irradiated rodent chow diet. Where indicated, high-fat diet (D12492, Research Diets 60% kcal from fat) and ketogenic diet (D06040601, Research Diets, 80% kcal fat/15% kcal protein/5% kcal carbohydrate) was used. Male C57BL/6J (stock no. 000664) and male C57BL/6J DIO mice (stock no. 380050) were purchased from Jackson Laboratory. Male C57BL/6NCrl (stock no. 027) mice were purchased from Charles River Laboratory. Whole body CNDP2-KO mice (catalog number, C57BL/6NCrl-Cndp2em1 (IMPC) Mbp/Mmucd, RRID: MMRRC_043492-UCD) were obtained from the Mutant Mouse Regional Resource Center, a NCRR-NIH funded strain repository. For in vivo injection of mice with metabolites, compounds were dissolved in 18:1:1 (by volume) of saline/Kolliphor EL (Sigma Aldrich)/DMSO. Compounds were administered to mice daily via intraperitoneal injections at 5 μl/g body weight at the indicated doses. For all injection experiments, mice were mock injected with the vehicle for 3-5 days until body weights have stabilized. Sample sizes were determined on the basis of previous experiments using similar methodologies. For metabolite administration experiments, mice were randomly assigned to treatment groups. Experimenters were not blinded to groups.
(§2) Preparation of plasma samples for LC-MS analysis. Plasma was collected from mice via a submandibular bleed into lithium heparin tubes (BD, 365985) and immediately transferred onto ice. […]
(§3) Targeted metabolomics. […] Quantification of the endogenous metabolite concentrations were performed by generating a standard curve with known concentrations of each metabolite. Metabolite standards were analyzed alongside the plasma samples using the same targeted triple quadrupole LC/MS method. […] The dilution of the plasma during the sample preparation was also taken into account for the quantification.

[4] = as above; type: in vivo, mouse; settings: mouse, plasma; 50 mg/kg IP, single; read-out: time of peak plasma level
Method: as §1, §2, §3

- product formed with BHB and phenylalanine as only substrates (CNDP2; BHB alone with 20 mM phenylalanine): exclusive product formed
- products formed from combined lactate and BHB (CNDP2; lactate and BHB at varying concentrations, phenylalanine 20 mM): simultaneous production
- water intake (DIO mice [2]): without affecting water intake
- time to return of plasma level to largely baseline values (DIO mice [3]; single): ≤ 3 h
- Tmax [4]: 1 h
Compound: CC(O)CC(=O)N[C@@H](Cc1ccccc1)C(=O)O (some centres unmarked) [BHB-Phe, N-betahydroxybutyryl-phenylalanine]
- plasma GDF15 (DIO mice [1]): unaltered
- plasma ghrelin (DIO mice [1]): unaltered
- plasma leptin (DIO mice [1]): unaltered
- food intake (kaolin/water experiment) (DIO mice [2]): suppressed food intake
- kaolin consumption (DIO mice [2]): without affecting water intake or kaolin consumption
- food intake after single administration (home cages) (DIO mice [3]; 3 h and 1 h): suppressed food intake at a 3 h, but not 1 h time point
